According to publication PMC10862732 (bioRxiv, 2024):

Tested on: T7 LysY/Iq E. coli
Type: cell-based
Conditions: 0 – 0.5 mM IPTG, 37 °C, 12 hours, OD600

RRIRFRPPYL•••G••PRFPPPFPIPRIPRIP [Tur1a]
Host growth upon induction of AMP expression with IPTG (self-depletion): dramatically slowed growth
